Measurements taken from patent publication US10793568B2, “Hormone receptor modulators for treating metabolic conditions and disorders” (ARDELYX, INC., priority 2016, dated 2020).

Experiments:
[1] = biological target: human Farnesoid X receptor ligand-binding domain/Gal4 DNA binding domain chimera (Homo sapiens (Human), UniProt Q96RI1); experiment: Cell-based assay of FXR activation (FXR-UAS-bla HEK 293T beta-lactamase reporter); conditions: cellular FXR beta-lactamase reporter assay; for Emax: HEK-293T, extent of activation relative to GW4064, read-out: % Efficacy; for EC50: FXR-UAS-bla HEK 293T cells, 16 h, pEC50 = -log EC50
Outline: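 HEK 293T cells stably expressing a Gal4-fused human FXR LBD and a UAS-driven beta-lactamase reporter were incubated with serially diluted compounds for 16 h at 37 °C in phenol red-free DMEM with 2% charcoal-stripped FBS. CCF4 FRET read-out: excitation 409 nm, emission 447 nm. pEC50 comes from a 3-parameter logistic fit, and efficacy is given as % of GW4064.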

[2] = biological target: ligand binding domain of human FXR (Homo sapiens (Human), UniProt Q96RI1); experiment: FXR ligand binding assay (LanthaScreen TR-FRET, SRC2-2 peptide recruitment); conditions: for pEC50: -log EC50, concentration required to produce 50% activation; for Emax: extent of activation relative to GW4064, read-out: % Efficacy
ligand binding domain of human FXR, sequence (Q96RI1 262-486): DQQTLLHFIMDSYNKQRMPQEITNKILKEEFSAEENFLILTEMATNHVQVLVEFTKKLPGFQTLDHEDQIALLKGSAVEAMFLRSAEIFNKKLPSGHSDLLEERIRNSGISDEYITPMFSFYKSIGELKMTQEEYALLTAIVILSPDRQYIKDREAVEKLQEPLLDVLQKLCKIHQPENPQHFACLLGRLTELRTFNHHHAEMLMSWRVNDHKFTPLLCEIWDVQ

human Farnesoid X receptor ligand-binding domain/Gal4 DNA binding domain chimera, sequence (Q96RI1 262-486, change not shown): as the sequence (Q96RI1 262-486) above
human Farnesoid X receptor ligand-binding domain/Gal4 DNA binding domain chimera, sequence (P04386 1-147 partner): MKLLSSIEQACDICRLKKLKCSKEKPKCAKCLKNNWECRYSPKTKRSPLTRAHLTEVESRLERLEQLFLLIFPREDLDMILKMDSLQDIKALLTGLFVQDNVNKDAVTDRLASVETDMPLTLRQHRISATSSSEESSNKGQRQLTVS

Work on `O=C(O)C1CC(c2ccc(N3C[C@@H]4C[C@H]3C[C@H]4OCc3c(-c4c(Cl)cccc4Cl)noc3C3CC3)cc2)C1` (stereo partly drawn) [Compound I-151, 3-{4-[(1S,4S,5R)-5-{[5-cyclopropyl-3-(2,6-dichlorophenyl)-1,2-oxazol-4-yl]methoxy}-2-azabicyclo[2.2.1]heptan-2-yl]phenyl}cyclobutane-1-carboxylic Acid] yielded an Emax [1] of 106%, an EC50 [1] of 25.1 nM and a pEC50 [2] of 8.6. The Emax [2] was 134%.
`CC(CC(=O)O)c1ccc(N2C[C@@H]3C[C@H]2C[C@H]3OCc2c(-c3c(Cl)cccc3Cl)noc2C2CC2)c(F)c1` (stereo partly drawn) [Compound I-152, 3-{4-[(1S,4S,5R)-5-{[5-cyclopropyl-3-(2,6-dichlorophenyl)-1,2-oxazol-4-yl]methoxy}-2-azabicyclo[2.2.1]heptan-2-yl]-3-fluorophenyl}butanoic Acid] gave an Emax [1] of 105%, an EC50 [1] of 5.01 nM and an Emax [2] of 132%.
`O=C(O)Cc1ccc(N2C[C@@H]3C[C@H]2C[C@H]3OCc2c(-c3c(Cl)cccc3Cl)noc2C2CC2)c(F)c1` [Compound I-153, 2-{4-[(1S,4S,5R)-5-{[5-cyclopropyl-3-(2,6-dichlorophenyl)-1,2-oxazol-4-yl]methoxy}-2-azabicyclo[2.2.1]heptan-2-yl]-3-fluorophenyl}acetic Acid] was tested, and the Emax [1] was 100%, the EC50 [1] was 10 nM and the pEC50 [2] was 9.2. The Emax [2] was 130%.
`O=C(O)CCc1ccc(N2C[C@@H]3C[C@H]2C[C@H]3OCc2c(-c3c(Cl)cccc3Cl)noc2C2CC2)c(F)c1` [Compound I-154, 3-{4-[(1S,4S,5R)-5-{[5-cyclopropyl-3-(2,6-dichlorophenyl)-1,2-oxazol-4-yl]methoxy}-2-azabicyclo[2.2.1]heptan-2-yl]-3-fluorophenyl}propanoic Acid] showed an Emax [1] of 105%, an EC50 [1] of 0.501 nM and a pEC50 [2] of 8.6. It also gave an Emax [2] of 158%.
For `O=C(O)CCc1ccc(N2C[C@@H]3C[C@H]2C[C@H]3OCc2c(-c3c(Cl)cccc3Cl)noc2C2CC2)cc1F` [Compound I-155, 3-{4-[(1S,4S,5R)-5-{[5-cyclopropyl-3-(2,6-dichlorophenyl)-1,2-oxazol-4-yl]methoxy}-2-azabicyclo[2.2.1]heptan-2-yl]-2-fluorophenyl}propanoic Acid], the Emax [1] was 102%, the EC50 [1] was 1 nM and the pEC50 [2] was 8.3. It also gave an Emax [2] of 136%.
`CC(C)(Cc1ccc(N2C[C@@H]3C[C@H]2C[C@H]3OCc2c(-c3c(Cl)cccc3Cl)noc2C2CC2)cc1F)C(=O)O` [Compound I-156, 3-{4-[(1S,4S,5R)-5-{[5-cyclopropyl-3-(2,6-dichlorophenyl)-1,2-oxazol-4-yl]methoxy}-2-azabicyclo[2.2.1]heptan-2-yl]-2-fluorophenyl}-2,2-dimethylpropanoic Acid] was tested, and the Emax [1] was 105%, the EC50 [1] was 39.8 nM and the pEC50 [2] was 7.6. It also gave an Emax [2] of 128%.
For `O=C(O)CCCc1ccc(N2C[C@@H]3C[C@H]2C[C@H]3OCc2c(-c3c(Cl)cccc3Cl)noc2C2CC2)c(F)c1` [Compound I-157, 4-{4-[(1S,4S,5R)-5-{[5-cyclopropyl-3-(2,6-dichlorophenyl)-1,2-oxazol-4-yl]methoxy}-2-azabicyclo[2.2.1]heptan-2-yl]-3-fluorophenyl}butanoic Acid], the Emax [1] was 100%, the EC50 [1] was 2.51 nM and the pEC50 [2] was 8.2. The Emax [2] was 134%.
`N#Cc1cc(CCC(=O)O)ccc1N1C[C@@H]2C[C@H]1C[C@H]2OCc1c(-c2c(Cl)cccc2Cl)noc1C1CC1` [Compound I-158, 3-{3-cyano-4-[(1S,4S,5R)-5-{[5-cyclopropyl-3-(2,6-dichlorophenyl)-1,2-oxazol-4-yl]methoxy}-2-azabicyclo[2.2.1]heptan-2-yl]phenyl}propanoic Acid] gave an Emax [1] of 104%, an EC50 [1] of 6.31 nM and a pEC50 [2] of 7.6. For the same compound, the Emax [2] was 126%.
`Cc1cccc(Cl)c1-c1noc(C2CC2)c1CO[C@@H]1C[C@@H]2C[C@H]1CN2c1ccc(CCC(=O)O)cc1F` [Compound I-159, 3-{4-[(1S,4S,5R)-5-{[3-(2-chloro-6-methylphenyl)-5-cyclopropyl-1,2-oxazol-4-yl]methoxy}-2-azabicyclo[2.2.1]heptan-2-yl]-3-fluorophenyl}propanoic Acid] gave an Emax [1] of 100%, an EC50 [1] of 1.58 nM and a pEC50 [2] of 8.2. For the same compound, the Emax [2] was 144%.
For `O=C(O)C1CN(Cc2ccc(N3C[C@@H]4C[C@H]3C[C@H]4OCc3c(-c4c(Cl)cccc4Cl)noc3C3CC3)cc2)C1` [Compound I-160, 1-({4-[(1S,4S,5R)-5-{[5-cyclopropyl-3-(2,6-dichlorophenyl)-1,2-oxazol-4-yl]methoxy}-2-azabicyclo[2.2.1]heptan-2-yl]phenyl}methyl)azetidine-3-carboxylic Acid], the Emax [1] was 110%, the EC50 [1] was 1000 nM and the pEC50 [2] was 6.9. It also gave an Emax [2] of 93%.
`O=CN(O)Cc1ccc(N2C[C@@H]3C[C@H]2C[C@H]3OCc2c(-c3c(Cl)cccc3Cl)noc2C2CC2)cc1` [Compound I-161, N-({4-[(1S,4S,5R)-5-{[5-cyclopropyl-3-(2,6-dichlorophenyl)-1,2-oxazol-4-yl]methoxy}-2-azabicyclo[2.2.1]heptan-2-yl]phenyl}methyl)-N-hydroxyformamide] showed an Emax [1] of 102%, an EC50 [1] of 12.6 nM and a pEC50 [2] of 6.9. The Emax [2] was 134%.
`Fc1cc(CCc2nn[nH]n2)ccc1N1C[C@@H]2C[C@H]1C[C@H]2OCc1c(-c2c(Cl)cccc2Cl)noc1C1CC1` [Compound I-162, (1S,4S,5R)-5-{[5-cyclopropyl-3-(2,6-dichlorophenyl)-1,2-oxazol-4-yl]methoxy}-2-{2-fluoro-4-[2-(2H-1,2,3,4-tetrazol-5-yl)ethyl]phenyl}-2-azabicyclo[2.2.1]heptane] showed an Emax [1] of 105%, an EC50 [1] of 6.31 nM and a pEC50 [2] of 8.1. It also gave an Emax [2] of 140%.
With `O=C(CCc1ccc(N2C[C@@H]3C[C@H]2C[C@H]3OCc2c(-c3c(Cl)cccc3Cl)noc2C2CC2)c(F)c1)OCCN(CCO)CCO` [Compound I-163, 2-[bis(2-hydroxyethyl)amino]ethyl 3-{4-[(1S,4S,5R)-5-{[5-cyclopropyl-3-(2,6-dichlorophenyl)-1,2-oxazol-4-yl]methoxy}-2-azabicyclo[2.2.1]heptan-2-yl]-3-fluorophenyl}propanoate] the Emax [1] was 99%, the EC50 [1] was 1.26 nM and the pEC50 [2] was 7.5. It also gave an Emax [2] of 154%.
`O=C(NCc1nn[nH]n1)c1ccc(N2C[C@@H]3C[C@H]2C[C@H]3OCc2c(-c3c(Cl)cccc3Cl)noc2C2CC2)cc1` [Compound I-164, 4-[(1S,4S,5R)-5-{[5-cyclopropyl-3-(2,6-dichlorophenyl)-1,2-oxazol-4-yl]methoxy}-2-azabicyclo[2.2.1]heptan-2-yl]-N-(2H-1,2,3,4-tetrazol-5-ylmethyl)benzamide] was tested, and the Emax [1] was 118%, the EC50 [1] was 79.4 nM and the pEC50 [2] was 9.7. For the same compound, the Emax [2] was 148%.
With `O=C(O)CNC(=O)c1ccc(N2C[C@@H]3C[C@H]2C[C@H]3OCc2c(-c3c(Cl)cccc3Cl)noc2C2CC2)cc1` [Compound I-165, 2-({4-[(1S,4S,5R)-5-{[5-cyclopropyl-3-(2,6-dichlorophenyl)-1,2-oxazol-4-yl]methoxy}-2-azabicyclo[2.2.1]heptan-2-yl]phenyl}formamido)acetic Acid] the Emax [1] was 107%, the EC50 [1] was 20 nM and the pEC50 [2] was 8.4. For the same compound, the Emax [2] was 140%.
